Data: article doi:10.1101/2025.06.02.657523v1 (biorxiv, 2025)

Target: RSK4 (Homo sapiens, UniProt Q9UK32)
Assay: Kinase-Glo Plus luminescence kinase assay
Assay type: biochemical
Settings: […] ATP, […] MgCl2, pH […] °C, […] min, […] DMSO

Sequence of RSK4 (Q9UK32 whole entry): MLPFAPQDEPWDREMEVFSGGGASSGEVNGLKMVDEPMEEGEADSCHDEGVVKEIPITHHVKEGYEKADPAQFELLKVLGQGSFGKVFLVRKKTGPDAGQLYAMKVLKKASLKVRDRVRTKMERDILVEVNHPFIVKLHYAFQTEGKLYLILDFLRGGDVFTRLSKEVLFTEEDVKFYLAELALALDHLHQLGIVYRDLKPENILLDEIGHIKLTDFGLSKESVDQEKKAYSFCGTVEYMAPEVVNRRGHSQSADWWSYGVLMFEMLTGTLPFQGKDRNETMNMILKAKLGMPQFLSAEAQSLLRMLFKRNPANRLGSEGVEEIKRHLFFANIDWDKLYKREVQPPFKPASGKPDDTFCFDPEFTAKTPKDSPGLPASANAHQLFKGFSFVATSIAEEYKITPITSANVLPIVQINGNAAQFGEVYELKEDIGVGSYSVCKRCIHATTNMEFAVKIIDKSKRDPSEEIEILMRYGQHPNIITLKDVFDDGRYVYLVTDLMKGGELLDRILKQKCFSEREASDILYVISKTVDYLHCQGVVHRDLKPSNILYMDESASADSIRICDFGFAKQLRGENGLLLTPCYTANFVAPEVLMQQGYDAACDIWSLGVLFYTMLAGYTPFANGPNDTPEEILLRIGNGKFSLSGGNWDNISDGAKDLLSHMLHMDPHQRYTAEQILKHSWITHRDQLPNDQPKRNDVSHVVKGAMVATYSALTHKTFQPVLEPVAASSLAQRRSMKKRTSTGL

SMILES | IC50
Cc1cc(=O)n(C2CCC(F)(F)C2)c2nc(Nc3ccc4c(c3)CC(=O)N4)ncc12 (centres unmarked) [R634] | 86.3 ± 40.7 nM
Cc1cc(=O)n(C2CCCCC2)c2nc(Nc3ccc4[nH]ccc4c3)ncc12 [R635, 2-((1H-indol-5-yl)amino)-8-cyclohexyl-5-methylpyrido[2,3-d]pyrimidin-7(8H)-one] | 45.9 ± 3.11 nM
